Reference: patent US20240245659A1, “Methods of Treating Cushing's Syndrome and Liver Disorders, and of Reducing Liver Toxicity of Other Drugs Administered to a Patient” (Corcept Therapeutics Incorporated, priority 2022, published 2024)

Key:
CYP3A4 = CYP3A4 (Homo sapiens, UniProt P08684); details: in vivo; cited from earlier work
CYP2C8 = molecular target: T1, CYP2C8 (Homo sapiens, UniProt P10632); details: on administration; cited from earlier work
T1 sequence (P10632 1-490): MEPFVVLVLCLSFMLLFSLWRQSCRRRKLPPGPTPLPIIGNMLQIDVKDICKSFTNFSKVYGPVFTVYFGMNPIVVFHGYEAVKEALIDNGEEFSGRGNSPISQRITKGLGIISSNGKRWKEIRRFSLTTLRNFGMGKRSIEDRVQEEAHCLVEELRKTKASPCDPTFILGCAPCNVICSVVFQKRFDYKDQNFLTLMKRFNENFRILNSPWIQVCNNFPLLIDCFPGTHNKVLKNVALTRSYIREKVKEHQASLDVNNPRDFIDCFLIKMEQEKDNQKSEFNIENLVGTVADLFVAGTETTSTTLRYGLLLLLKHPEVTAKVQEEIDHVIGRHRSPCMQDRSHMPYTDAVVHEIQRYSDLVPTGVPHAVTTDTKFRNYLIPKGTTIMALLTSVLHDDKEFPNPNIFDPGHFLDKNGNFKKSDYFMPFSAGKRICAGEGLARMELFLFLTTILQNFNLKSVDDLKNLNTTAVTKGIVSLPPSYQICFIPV

[1] = via CYP3A and carbonyl reductase; cited from earlier work
[2] = molecular target: T2, glucocorticoid receptor type 2 (GR) (Homo sapiens, UniProt P04150); details: cited from earlier work
T2 sequence (P04150 1-777): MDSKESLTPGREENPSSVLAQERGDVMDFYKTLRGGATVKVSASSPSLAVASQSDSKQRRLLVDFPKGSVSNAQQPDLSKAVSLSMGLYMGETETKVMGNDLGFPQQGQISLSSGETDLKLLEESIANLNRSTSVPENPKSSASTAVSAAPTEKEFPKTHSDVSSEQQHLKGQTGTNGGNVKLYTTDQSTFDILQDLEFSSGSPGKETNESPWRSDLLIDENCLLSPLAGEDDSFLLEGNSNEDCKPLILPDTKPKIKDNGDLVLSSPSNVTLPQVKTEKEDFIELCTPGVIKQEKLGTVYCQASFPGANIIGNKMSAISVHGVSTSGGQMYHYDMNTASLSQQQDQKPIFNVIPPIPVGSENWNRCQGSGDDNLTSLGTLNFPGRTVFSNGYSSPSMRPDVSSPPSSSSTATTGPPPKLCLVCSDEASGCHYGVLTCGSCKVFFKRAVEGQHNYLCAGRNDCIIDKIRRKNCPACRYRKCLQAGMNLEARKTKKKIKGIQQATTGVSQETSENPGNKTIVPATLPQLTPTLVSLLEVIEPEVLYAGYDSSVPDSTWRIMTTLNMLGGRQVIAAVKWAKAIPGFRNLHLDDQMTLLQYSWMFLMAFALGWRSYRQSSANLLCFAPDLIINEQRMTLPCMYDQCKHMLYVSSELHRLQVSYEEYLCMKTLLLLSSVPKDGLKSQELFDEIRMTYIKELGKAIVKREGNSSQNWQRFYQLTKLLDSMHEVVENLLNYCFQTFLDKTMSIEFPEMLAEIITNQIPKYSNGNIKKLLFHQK

[3] = Cushing's syndrome patients; cited from earlier work
[4] = Phase 1 hepatic impairment study of relacorilant (moderate hepatic impairment vs matched controls); format: in vivo, human
Method: A phase 1, open-label, multiple-dose study included 18 subjects (18-70 years). Of these subjects, 9 subjects had moderate hepatic impairment (Child—Pugh Class B) and 9 subjects were controls with normal hepatic function matched for age, sex, and body weight.
Relacorilant was administered at a dose of 300 mg/day for 10 days under fasted conditions. Blood samples for pharmacokinetic (PK) analysis were collected before dosing on Day 1 and from before dosing on Day 10 through 144 hours after the last dose of study drug (Day 16).
Subjects with moderate hepatic impairment were well matched for age, sex, and body weight Mean total Child-Pugh score of 7.9 (range: 7-9) in subjects with moderate hepatic impairment. Liver function was assessed by measurements of alanine aminotransferase (ALT) and aspartate aminotransferase (AST) levels.

[5] = Phase 2 Cushing's syndrome study, low-dose and high-dose groups; format: in vivo, human
Method: A multicenter, open-label study with two dose groups enrolled 34 patients (aged 18-80 years) with endogenous Cushing's Syndrome (CS) and impaired glucose tolerance or type 2 diabetes mellitus and/or uncontrolled or untreated hypertension. Patients with elevated AST or ALT (elevated defined as greater than 3-times the ULN) were excluded. These patients were treated with relacorilant at two dosage levels. The dosages for each group were escalated in 50-mg dose increments every 4 weeks. The low dose group received relacorilant beginning at a dose of 100 mg/day, escalating to dosages of 200 mg/day during the duration of the 12-week treatment. The high-dose group received relacorilant beginning at a dose of 250 mg/day, escalating to a dosage of 400 mg/day during the duration of the 16-week treatment. The P-values shown are the P-values for the mean change from baseline to last observation calculated from the Wilcoxon signed-rank test. The Efficacy Population includes all patients treated with relacorilant who had postbaseline data.

CYP2C9 = CYP2C9 (Homo sapiens, UniProt P11712); details: on administration; cited from earlier work
Sequence of CYP2C9 (P11712 whole entry): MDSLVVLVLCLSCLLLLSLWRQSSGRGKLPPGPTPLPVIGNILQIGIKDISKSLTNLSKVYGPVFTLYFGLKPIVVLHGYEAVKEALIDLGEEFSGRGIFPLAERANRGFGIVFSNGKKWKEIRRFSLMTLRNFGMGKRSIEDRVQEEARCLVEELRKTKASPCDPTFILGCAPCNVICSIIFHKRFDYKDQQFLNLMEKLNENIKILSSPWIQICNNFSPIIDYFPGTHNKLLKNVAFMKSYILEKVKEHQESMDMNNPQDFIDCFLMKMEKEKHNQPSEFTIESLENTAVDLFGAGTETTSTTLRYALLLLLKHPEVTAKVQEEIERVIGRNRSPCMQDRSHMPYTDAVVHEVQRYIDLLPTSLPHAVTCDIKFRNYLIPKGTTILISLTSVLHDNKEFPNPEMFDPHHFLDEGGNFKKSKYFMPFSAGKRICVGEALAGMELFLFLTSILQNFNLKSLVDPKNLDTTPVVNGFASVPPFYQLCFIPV

progesterone receptor = molecular target: T3, progesterone receptor (Homo sapiens, UniProt P06401); details: cited from earlier work
T3 sequence (P06401 1-933): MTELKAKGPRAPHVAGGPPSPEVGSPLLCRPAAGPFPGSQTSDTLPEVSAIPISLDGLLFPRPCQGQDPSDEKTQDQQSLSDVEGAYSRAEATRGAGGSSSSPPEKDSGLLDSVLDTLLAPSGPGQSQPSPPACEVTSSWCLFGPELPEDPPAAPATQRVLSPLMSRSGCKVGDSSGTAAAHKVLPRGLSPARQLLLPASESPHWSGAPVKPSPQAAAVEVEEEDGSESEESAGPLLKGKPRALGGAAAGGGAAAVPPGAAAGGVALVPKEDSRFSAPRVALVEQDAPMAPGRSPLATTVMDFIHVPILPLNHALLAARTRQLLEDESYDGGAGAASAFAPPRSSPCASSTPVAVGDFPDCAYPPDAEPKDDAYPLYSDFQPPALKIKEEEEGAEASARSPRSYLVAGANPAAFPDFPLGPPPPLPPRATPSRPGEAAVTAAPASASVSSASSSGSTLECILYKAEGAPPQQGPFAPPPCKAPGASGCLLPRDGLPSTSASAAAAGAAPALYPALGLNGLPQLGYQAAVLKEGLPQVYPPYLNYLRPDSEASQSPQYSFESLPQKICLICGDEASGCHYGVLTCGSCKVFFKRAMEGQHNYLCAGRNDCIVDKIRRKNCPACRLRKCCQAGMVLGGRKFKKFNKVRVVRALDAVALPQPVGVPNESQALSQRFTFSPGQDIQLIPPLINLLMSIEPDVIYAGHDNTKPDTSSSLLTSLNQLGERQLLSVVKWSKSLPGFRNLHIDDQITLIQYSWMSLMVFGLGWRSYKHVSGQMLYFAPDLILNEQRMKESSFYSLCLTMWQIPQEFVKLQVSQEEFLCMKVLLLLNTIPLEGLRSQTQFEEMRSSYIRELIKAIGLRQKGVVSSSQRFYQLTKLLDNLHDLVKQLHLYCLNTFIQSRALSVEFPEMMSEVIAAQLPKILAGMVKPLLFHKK

Sequence of CYP3A4 (P08684 whole entry): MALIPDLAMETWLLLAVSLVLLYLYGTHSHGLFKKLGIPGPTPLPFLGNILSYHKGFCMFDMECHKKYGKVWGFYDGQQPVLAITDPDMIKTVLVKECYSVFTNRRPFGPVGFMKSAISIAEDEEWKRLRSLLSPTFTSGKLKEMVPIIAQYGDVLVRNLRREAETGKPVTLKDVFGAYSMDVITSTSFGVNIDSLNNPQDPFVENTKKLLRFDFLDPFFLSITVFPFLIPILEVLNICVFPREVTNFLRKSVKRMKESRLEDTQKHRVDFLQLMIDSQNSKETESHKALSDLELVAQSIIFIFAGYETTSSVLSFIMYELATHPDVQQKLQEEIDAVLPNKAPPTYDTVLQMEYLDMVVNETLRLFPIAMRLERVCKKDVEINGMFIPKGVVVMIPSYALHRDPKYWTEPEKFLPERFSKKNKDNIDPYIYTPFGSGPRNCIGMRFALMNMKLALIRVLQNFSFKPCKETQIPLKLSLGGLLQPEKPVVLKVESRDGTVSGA

pharmacokinetic difference, moderate hepatic impairment vs matched controls ([4]; 300 mg/day for 10 days, fasted): No apparent difference
relacorilant exposures (area under the curve and maximum plasma concentration) across both groups ([4]; moderate hepatic impairment vs matched controls): largely overlapped
change in LFTs, baseline to last observation ([5]; both dose groups (100-200 mg/day 12 weeks; 250-400 mg/day 16 weeks)): Reductions
change in LFTs, high-dose group compared with low-dose group ([5]; high-dose group 250-400 mg/day, 16 weeks): greater reductions
SMILES: Cn1cc(S(=O)(=O)N2CCC3=Cc4c(cnn4-c4ccc(F)cc4)C[C@]3(C(=O)c3cc(C(F)(F)F)ccn3)C2)cn1 [relacorilant, (R)-(1-(4-fluorophenyl)-6-((1-methyl-1H-pyrazol-4-yl)sulfonyl)-4,4a,5,6,7,8-hexahydro-1H-pyrazolo[3,4-g]isoquinolin-4a-yl)(4-(trifluoromethyl)pyridin-2-yl)methanone]
CYP3A4 inhibition (CYP3A4): strong CYP3A4 inhibitor
CYP2C8 inhibition (CYP2C8): does not result in clinically significant inhibition
route of elimination [1]: primarily hepatic
binding to GR [2]: binds
antiprogesterone effects or drug-induced hypokalemia [3]: without antiprogesterone effects or drug-induced hypokalemia
effect on hypertension and hyperglycemia [3]: clinically meaningful improvement
other cortisol-excess-related comorbidities (hypercoagulopathy, cognitive function, mood, quality of life) [3]: Improvement
change in mean liver function tests (ALT, AST) ([4]; patients with moderate hepatic impairment, 300 mg/day for 10 days, fasted, baseline to Day 16): Reductions
normalization of ALT in patients with abnormal ALT values at baseline ([5]; Cushing's syndrome patients): 2 of 4
CYP2C9 inhibition (CYP2C9): does not result in clinically significant inhibition
affinity for the progesterone receptor (progesterone receptor): lacks affinity
